Like-named read-outs stand apart in the source and are kept apart here. One block for each molecule: values may come before it.
Assays:
[1] = system: canine-colonoid-derived monolayers; assay: Bidirectional transport (Papp) across canine-colonoid-derived monolayers; format: in vitro ADME, dog; conditions: for Papp A→B / Papp B→A: Dog colonoid, read-out: Papp × 10^−6; for Papp B→A: BL→AP pH 7.4/7.4, individual wells
Procedure: (§1) After seven days of culture (Figure 3A), the 3D colonoids were harvested from the Matrigel® using the Corning™ cell recovery solution. Matrigel® plugs were dissociated by repeated pipetting after adding 500 μL of pre-chilled cell recovery solution into each well, and the plate was incubated for 30 min at 4 °C to dissolve the Matrigel®. The mixture was then transferred to a 15 mL tube and centrifuged at 100× g for 5 min at 4 °C. The organoid pellet was resuspended in 1 mL TrypLE Express and incubated at 37 °C for 10 min with shaking. To stop the TrypLE action, 6 mL of DMEM/F12 was added to the mixture before centrifugation at 100× g for 5 min at 4 °C. The supernatant was removed, and the pellet was resuspended with CMGF+ media. The harvested colonoid cell suspension was filtered through a sterile cell strainer (40 µm nylon mesh, Thermo Fisher Scientific) to obtain a single-cell suspension. The viability of dissociated cells was assessed by the trypan blue exclusion test [58, 59], and cells were counted manually using a hemocytometer (Hausser Scientific, Horsham, PA, USA). The Transwell™ inserts were pre-coated with Matrigel® (100 μg/mL; Corning®) and rat tail collagen I (30 μg/mL; Fisher Scientific) to promote adhesion, growth, and differentiation in CMGF+ media at 37 °C for 1 h. Dissociated colonoid cells (Passages #15–20) were seeded at a density of 100,000 cells/cm^2 in pre-coated inserts and allowed to grow and differentiate in the presence of CMGF+ media for 10 to 12 days before the experiments (Figure 3B). The CMGF+ culture medium was changed every other day. The structural integrity of the cell monolayer was monitored every other day for up to two weeks by phase-contrast microscopy.
(§2) All transport experiments were conducted at room temperature following the conditions outlined in earlier reports during sampling and incubation [66, 67, 68]. The culture media were aspirated from both AP (0.2 mL) and BL (0.7 mL) chambers. For both the canine colonoid and the Caco-2 monolayer, the BL chambers with HBSS buffer at pH 7.4 (0.7 mL) and the AP chambers with appropriate HBSS buffer at pH 6.8 or 7.4 (0.2 mL) (canine) or pH 6.8 (0.2 mL) (Caco-2 cells) were rinsed and equilibrated at room temperature for 30 min. Two to three wells per drug/pH/direction were used for data generation.
(§3) After Caco-2 and canine colonoid monolayers were equilibrated in the transport buffer for 30 min, the buffer was aspirated from the AP (0.2 mL) and BL (0.7 mL) chambers. The media of the AP chamber were replaced with 0.2 mL of the drug solution prepared in an appropriate transport buffer. HBSS buffer with pH 7.4 was added to the BL chambers. At pre-defined time points (15, 30, 45, 60, 90, and 120 min), samples of 100 µL buffer were collected from the receiver chamber (BL) and replaced with the same volume (i.e., 100 µL) of transport buffer at pH 7.4. For the AP side, drug concentrations of the donor solution were measured prior to introduction into the well and at the end of the study (120 min). In so doing, no buffer replacement was needed. All study samples were labeled and stored at −80 °C until further analysis.
(§4) The same procedures described above for studying AP→BL permeability were followed when studying BL→AP, with the only difference being that the donor chamber was now the BL side and the receiver chamber was now the AP side. At pre-determined time intervals (15, 30, 45, 60, 90, and 120 min), 100 µL of buffer was removed from the receiver chamber (AP) and replaced with the same volume (i.e., 100 µL) of transport buffer with the specified pH. The collected samples were stored at −80 °C until further analysis by mass spectrometry (details below).

[2] = low permeability, high solubility; cited from earlier work
[3] = Bidirectional transport (Papp) across canine-colonoid-derived monolayers; format: in vitro ADME, dog; conditions: dog, Dog colonoid
Procedure: as §1, §2, §3, §4

[4] = parameters: method as in earlier work; conditions: ref 65 (PubChem), cited from earlier work
P-gp = conditions: cited from earlier work
[5] = Bidirectional transport (Papp) across Caco-2 cell monolayers; format: in vitro ADME, human; conditions: human; for Papp A→B at 120 min, 0.04 mg/mL: Caco-2, pH 6.8, 0.04 mg/mL (58.4 μM); for Papp A→B at 120 min, 0.4 mg/mL: Caco-2, pH 6.8, 0.4 mg/mL (584.1 μM); for Papp B→A at 120 min, 0.04 mg/mL: Caco-2, pH 7.4, 0.04 mg/mL (58.4 μM); for Papp B→A at 120 min, 0.4 mg/mL: Caco-2, pH 7.4, 0.4 mg/mL (584.1 μM); for Papp A→B at 120 min, 1 mg/mL: Caco-2, pH 6.8, 1 mg/mL (3380 μM); for Papp B→A at 120 min, 1 mg/mL: Caco-2, pH 7.4, 1 mg/mL (3380 μM)
Procedure: (§5) The harvested Caco-2 cell suspension was then filtered through a sterile cell strainer (40 µm nylon mesh, Thermo Fisher Scientific) to obtain a single-cell suspension. Caco-2 cell viability and concentration were determined by a trypan blue exclusion test [57, 58]. Single Caco-2 cells (passages 50–55) were seeded at a density of 75,000 cells/cm^2 in the apical chamber of the insert and cultured in CCCM media. The culture medium in both apical and basolateral chambers was changed every other day. In the transport studies, the monolayers were utilized 18 to 20 days after plating.
as §2, §3, §4
(§6) The uncorrected Papp estimates for the three drugs of interest (Papp-uncorrected, cm/s) were calculated as follows (Equation (2)) [7]: (2) Papp-uncorrected =VR/(A×C0)×dC/dt where VR is the volume in the receiver chamber (mL), A is the surface area of the filter ( 0.33 cm^2 ), C0 is the initial drug concentration (µM) in the donor chamber, and dC/dt is the maximum slope of the line defining the cumulative drug concentration (mg/mL) vs. time (min) in the receiver compartment. […] The estimated concentrations in the receiver compartment were corrected for drug removed during prior samples.
(§7) These Papp value estimates were further corrected for the percent recovery (Rec (%)) in each well [71, 72] as follows (Equation (3)): (3) Rec (%) =mg donor hr 2+total mg receiver hr 2/mg drug introduced into the donor compartment at hr 0
(§8) The corrected Papp estimates reported herein were, therefore, calculated as follows (Equation (4)):(4) Papp= Papp−uncorrected /Rec (%)

Caco-2 cell monolayers = assay: as above; format: in vitro ADME, human
Procedure: as §5, §2, §3, §4, §6, §7, §8

[6] = Human Caco-2, AP→BL pH 6.8/7.4, N = 2, read-out: Papp × 10^−6 Avg
[7] = Human Caco-2, AP→BL pH 6.8/7.4, individual wells, read-out: Papp × 10^−6
[8] = Human Caco-2, BL→AP pH 7.4/7.4, N = 2, read-out: Papp × 10^−6 Avg
[9] = Human Caco-2, BL→AP pH 7.4/7.4, individual wells, read-out: Papp × 10^−6

drug in the receiver compartment ([1]; 2.0 mg/mL, canine colonoids, irrespective of pH or direction (AP→BL or BL→AP)): not detectable
SMILES: CC(C)NCC(O)COc1ccc(CC(N)=O)cc1 (centres unmarked) [Atenolol]
BCS Class [2]: Class III

Papp A→B ([1]; 0.04 mg/mL (58.4 μM), AP→BL pH 6.8/7.4, individual wells): 18.5 ×10⁻⁶ cm/s | Papp A→B ([1]; 0.04 mg/mL (58.4 μM), AP→BL pH 7.4/7.4, individual wells): 13.5 ×10⁻⁶ cm/s | Papp B→A ([1]; 0.04 mg/mL (58.4 μM)): 12.7 ×10⁻⁶ cm/s | Papp A→B ([1]; 0.4 mg/mL (584.1 μM) ± FITC-dextran 200 µg/mL, AP→BL pH 6.8/7.4, individual wells): 9.1 ×10⁻⁶ cm/s | Papp A→B ([1]; 0.4 mg/mL (584.1 μM) ± FITC-dextran 200 µg/mL, AP→BL pH 7.4/7.4, individual wells): 11.2 ×10⁻⁶ cm/s | Papp B→A ([1]; 0.4 mg/mL (584.1 μM) ± FITC-dextran 200 µg/mL): 9.94 ×10⁻⁶ cm/s | Papp A→B at 120 min, 0.04 mg/mL ([3]; pH 6.8, 0.04 mg/mL (58.4 μM), AP→BL pH 6.8/7.4, N = 2, read-out: Papp × 10^−6 Avg): 17.7 ×10⁻⁶ cm/s | Papp A→B at 120 min, 0.04 mg/mL ([3]; pH 6.8, 0.04 mg/mL (58.4 μM), AP→BL pH 6.8/7.4, individual wells, read-out: Papp × 10^−6): 16.8 ×10⁻⁶ cm/s | Papp A→B at 120 min, 0.4 mg/mL ([3]; pH 6.8, 0.4 mg/mL (584.1 μM) ± FITC-dextran 200 µg/mL, AP→BL pH 6.8/7.4, individual wells, read-out: Papp × 10^−6): 8.33 ×10⁻⁶ cm/s | Papp A→B at 120 min, 0.4 mg/mL ([3]; pH 6.8, 0.4 mg/mL (584.1 μM) ± FITC-dextran 200 µg/mL, AP→BL pH 6.8/7.4, read-out: Papp × 10^−6 Avg): 8.72 ×10⁻⁶ cm/s | Papp A→B at 120 min, 0.04 mg/mL ([3]; pH 7.4, 0.04 mg/mL (58.4 μM), AP→BL pH 7.4/7.4, N = 2, read-out: Papp × 10^−6 Avg): 13.5 ×10⁻⁶ cm/s | Papp A→B at 120 min, 0.04 mg/mL ([3]; pH 7.4, 0.04 mg/mL (58.4 μM), AP→BL pH 7.4/7.4, individual wells, read-out: Papp × 10^−6): 13.4 ×10⁻⁶ cm/s | Papp B→A at 120 min, 0.04 mg/mL ([3]; pH 7.4, 0.04 mg/mL (58.4 μM), BL→AP pH 7.4/7.4, N = 2, read-out: Papp × 10^−6 Avg): 11.9 ×10⁻⁶ cm/s | Papp B→A at 120 min, 0.04 mg/mL ([3]; pH 7.4, 0.04 mg/mL (58.4 μM), BL→AP pH 7.4/7.4, individual wells, read-out: Papp × 10^−6): 11.2 ×10⁻⁶ cm/s | Papp A→B at 120 min, 0.4 mg/mL ([3]; pH 7.4, 0.4 mg/mL (584.1 μM) ± FITC-dextran 200 µg/mL, AP→BL pH 7.4/7.4, individual wells, read-out: Papp × 10^−6): 9.9 ×10⁻⁶ cm/s | Papp A→B at 120 min, 0.4 mg/mL ([3]; pH 7.4, 0.4 mg/mL (584.1 μM) ± FITC-dextran 200 µg/mL, AP→BL pH 7.4/7.4, read-out: Papp × 10^−6 Avg): 10.5 ×10⁻⁶ cm/s | Papp B→A at 120 min, 0.4 mg/mL ([3]; pH 7.4, 0.4 mg/mL (584.1 μM) ± FITC-dextran 200 µg/mL, BL→AP pH 7.4/7.4, individual wells, read-out: Papp × 10^−6): 9.88 ×10⁻⁶ cm/s | Papp B→A at 120 min, 0.4 mg/mL ([3]; pH 7.4, 0.4 mg/mL (584.1 μM) ± FITC-dextran 200 µg/mL, BL→AP pH 7.4/7.4, read-out: Papp × 10^−6 Avg): 9.91 ×10⁻⁶ cm/s | Papp A→B at 120 min, 0.04 mg/mL [5, 6]: 15.3 ×10⁻⁶ cm/s | Papp A→B at 120 min, 0.04 mg/mL [5, 7]: 17.5 ×10⁻⁶ cm/s | Papp A→B at 120 min, 0.4 mg/mL [5, 6]: 17.9 ×10⁻⁶ cm/s | Papp A→B at 120 min, 0.4 mg/mL [5, 7]: 19.3 ×10⁻⁶ cm/s | Papp B→A at 120 min, 0.04 mg/mL [5, 8]: 17.7 ×10⁻⁶ cm/s | Papp B→A at 120 min, 0.04 mg/mL [5, 9]: 16.3 ×10⁻⁶ cm/s | Papp B→A at 120 min, 0.4 mg/mL [5, 8]: 13.1 ×10⁻⁶ cm/s | Papp B→A at 120 min, 0.4 mg/mL [5, 9]: 13.8 ×10⁻⁶ cm/s | Papp × 10^−6 (Caco-2 cell monolayers; 0.04 mg/mL (58.4 μM), Human Caco-2, AP→BL pH 6.8/7.4, individual wells): 13.13 × 10^−6 cm/s | Papp × 10^−6 (Caco-2 cell monolayers; 0.04 mg/mL (58.4 μM), Human Caco-2, BL→AP pH 7.4/7.4, individual wells): 19.03 × 10^−6 cm/s | Papp × 10^−6 (Caco-2 cell monolayers; 0.4 mg/mL (584.1 μM), Human Caco-2, AP→BL pH 6.8/7.4, individual wells): 16.45 × 10^−6 cm/s | Papp × 10^−6 (Caco-2 cell monolayers; 0.4 mg/mL (584.1 μM), Human Caco-2, BL→AP pH 7.4/7.4, individual wells): 12.37 × 10^−6 cm/s
SMILES: COCCc1ccc(OCC(O)CNC(C)C)cc1 (centres unmarked) [Metoprolol]
Aqueous Solubility (25 °C) ([4]; 25 °C): >1000 mg/mL | Log P [4]: 2.15 | P-gp substrate status (P-gp): not a substrate for P-gp transport

Papp A→B ([1]; 1 mg/mL (3380 μM), AP→BL pH 6.8/7.4, individual wells): 11.1 ×10⁻⁶ cm/s | Papp A→B ([1]; 1 mg/mL (3380 μM), AP→BL pH 7.4/7.4, individual wells): 12 ×10⁻⁶ cm/s | Papp B→A ([1]; 1 mg/mL (3380 μM)): 12 ×10⁻⁶ cm/s | Papp A→B at 120 min, 1 mg/mL ([3]; pH 6.8, 1 mg/mL (3380 μM), AP→BL pH 6.8/7.4, N = 2, read-out: Papp × 10^−6 Avg): 11.6 ×10⁻⁶ cm/s | Papp A→B at 120 min, 1 mg/mL ([3]; pH 6.8, 1 mg/mL (3380 μM), AP→BL pH 6.8/7.4, individual wells, read-out: Papp × 10^−6): 12.2 ×10⁻⁶ cm/s | Papp A→B at 120 min, 1 mg/mL ([3]; pH 7.4, 1 mg/mL (3380 μM), AP→BL pH 7.4/7.4, N = 2, read-out: Papp × 10^−6 Avg): 12 ×10⁻⁶ cm/s | Papp A→B at 120 min, 1 mg/mL ([3]; pH 7.4, 1 mg/mL (3380 μM), AP→BL pH 7.4/7.4, individual wells, read-out: Papp × 10^−6): 12 ×10⁻⁶ cm/s | Papp B→A at 120 min, 1 mg/mL ([3]; pH 7.4, 1 mg/mL (3380 μM), BL→AP pH 7.4/7.4, N = 2, read-out: Papp × 10^−6 Avg): 11.5 ×10⁻⁶ cm/s | Papp B→A at 120 min, 1 mg/mL ([3]; pH 7.4, 1 mg/mL (3380 μM), BL→AP pH 7.4/7.4, individual wells, read-out: Papp × 10^−6): 10.9 ×10⁻⁶ cm/s | Papp A→B at 120 min, 1 mg/mL [5, 6]: 12.4 ×10⁻⁶ cm/s | Papp A→B at 120 min, 1 mg/mL [5, 7]: 12.1 ×10⁻⁶ cm/s | Papp B→A at 120 min, 1 mg/mL [5, 8]: 11.9 ×10⁻⁶ cm/s | Papp B→A at 120 min, 1 mg/mL [5, 9]: 11.4 ×10⁻⁶ cm/s | Papp × 10^−6 (Caco-2 cell monolayers; 1 mg/mL (3380 μM), Human Caco-2, AP→BL pH 6.8/7.4, individual wells): 12.75 × 10^−6 cm/s | Papp × 10^−6 (Caco-2 cell monolayers; 1 mg/mL (3380 μM), Human Caco-2, BL→AP pH 7.4/7.4, individual wells): 12.43 × 10^−6 cm/s
SMILES: CC(C)NCC(O)COc1cccc2ccccc12 (centres unmarked) [Propranolol]

— article PMC10177590, “Canine Intestinal Organoids as a Novel In Vitro Model of Intestinal Drug Permeability: A Proof-of-Concept Study” (Cells, 2023)
